Columns and labels:
Type in all cases: in vivo
[1] = system: velvetleaf (Abutilon theophrasti); assay: General postemergence herbicidal activity, velvetleaf; conditions: post-emergence, 336 h, postemergence, after 14 d, 0 = no injury, 100 = complete kill, read-out: ABUTH % Visual Injury; for pest or weed control at 70 g/ha: 70 g ai/ha; for pest or weed control at 140 g/ha: 140 g ai/ha; for pest or weed control at 35 g/ha: 35 g ai/ha; for pest or weed control at 280 g/ha: 280 g ai/ha
Method: (§1) Seeds or nutlets of the desired test plant species were planted in Sun Gro MetroMix® 360 planting mixture, which typically has a pH of 6.0 to 6.8 and an organic matter content of about 30 percent, in plastic pots with a surface area of 64 square centimeters (cm^2). When required to ensure good germination and healthy plants, a fungicide treatment and/or other chemical or physical treatment was applied. The plants were grown for 7-21 days (d) in a greenhouse with an approximate 15-hour (h) photoperiod which was maintained at about 23-29° C. during the day and 22-28° C. during the night. Nutrients and water were added on a regular basis and supplemental lighting was provided with overhead metal halide 1000-Watt lamps as necessary. The plants were employed for testing when they reached the first or second true leaf stage.
(§2) A weighed amount, determined by the highest rate to be tested, of each test compound was dissolved in 4 mL of a 97:3 volume per volume (v/v) mixture of acetone and dimethyl sulfoxide (DMSO) to obtain concentrated stock solutions. […] The concentrated stock solutions obtained were diluted with 20 mL of an aqueous mixture containing acetone, water, isopropyl alcohol, DMSO, Atplus 411F crop oil concentrate, and Triton X-155 surfactant in a 48.5:39:10:1.5:1.0:0.02 v/v ratio to obtain spray solutions containing the highest application rates. Additional application rates were obtained by serial dilution of 12 mL of the high rate solution into a solution containing 2 mL of 97:3 v/v mixture of acetone and DMSO and 10 mL of an aqueous mixture containing acetone, water, isopropyl alcohol, DMSO, Atplus 411F crop oil concentrate, and Triton X-155 surfactant in a 48.5:39:10:1.5:1.0:0.02 v/v ratio to obtain ½×, ¼×, ⅛× and 1/16× rates of the high rate. Compound requirements are based upon a 12 mL application volume at a rate of 187 liters per hectare (L/ha). Formulated compounds were applied to the plant material with an overhead Mandel track sprayer equipped with 8002E nozzles calibrated to deliver 187 L/ha over an application area of 0.503 square meters (m^2) at a spray height of 18 inches (43 cm) above the average plant canopy height. Control plants were sprayed in the same manner with the solvent blank.
(§3) The treated plants and control plants were placed in a greenhouse as described above and watered by sub-irrigation to prevent wash-off of the test compounds. After 14 d, the condition of the test plants as compared with that of the untreated plants was determined visually and scored on a scale of 0 to 100 percent where 0 corresponds to no injury and 100 corresponds to complete kill.

[2] = system: lambsquarters (Chenopodium album); assay: General postemergence herbicidal activity, lambsquarters; conditions: post-emergence, 336 h, postemergence, after 14 d, 0 = no injury, 100 = complete kill, read-out: CHEAL % Visual Injury; for pest or weed control at 70 g/ha: 70 g ai/ha; for pest or weed control at 140 g/ha: 140 g ai/ha; for pest or weed control at 35 g/ha: 35 g ai/ha; for pest or weed control at 280 g/ha: 280 g ai/ha
Method: as §1, §2, §3

[3] = system: wild buckwheat (Polygonum convululus); assay: General postemergence herbicidal activity, wild buckwheat; conditions: post-emergence, 336 h, postemergence, after 14 d, 0 = no injury, 100 = complete kill, read-out: POLCO % Visual Injury; for pest or weed control at 70 g/ha: 70 g ai/ha; for pest or weed control at 140 g/ha: 140 g ai/ha; for pest or weed control at 35 g/ha: 35 g ai/ha; for pest or weed control at 280 g/ha: 280 g ai/ha
Method: as §1, §2, §3

[4] = system: corn (Zea mays); assay: General postemergence herbicidal activity, corn; conditions: post-emergence, 336 h, postemergence, after 14 d, 0 = no injury, 100 = complete kill, read-out: ZEAMX % Visual Injury; for plant injury at 70 g/ha: 70 g ai/ha; for plant injury at 140 g/ha: 140 g ai/ha; for plant injury at 35 g/ha: 35 g ai/ha; for plant injury at 280 g/ha: 280 g ai/ha
Method: as §1, §2, §3

## COc1c(Cl)ccc(-c2cc(N)c(Cl)c(C(=O)NOc3ccccc3)n2)c1F [Compound 20, 4-Amino-3-chloro-6-(4-chloro-2-fluoro-3-methoxyphenyl)-N-phenoxypicolinamide]
[1]
  pest or weed control at 70 g/ha: 100%
[2]
  pest or weed control at 70 g/ha: 95%
[3]
  pest or weed control at 70 g/ha: 100%
[4]
  plant injury at 70 g/ha: 25%

## COc1c(Cl)ccc(-c2cc(N)c(Cl)c(C(=O)NOC(C)(C)C)n2)c1F [Compound 21, 4-Amino-N-tert-butoxy-3-chloro-6-(4-chloro-2-fluoro-3-methoxyphenyl)picolinamide]
[1]
  pest or weed control at 140 g/ha: 100%
[2]
  pest or weed control at 140 g/ha: 95%
[3]
  pest or weed control at 140 g/ha: 95%
[4]
  plant injury at 140 g/ha: 0%

## COc1c(Cl)ccc(-c2cc(N)c(Cl)c(C(=O)NOCc3ccc(F)cc3)n2)c1F [Compound 22, 4-Amino-3-chloro-6-(4-chloro-2-fluoro-3-methoxyphenyl)-N-(4-fluoro-benzyloxy)picolinamide]
[1]
  pest or weed control at 35 g/ha: 100%
[2]
  pest or weed control at 35 g/ha: 100%
[3]
  pest or weed control at 35 g/ha: 100%
[4]
  plant injury at 35 g/ha: 10%

## COc1ccc(CONC(=O)c2nc(-c3ccc(Cl)c(OC)c3F)cc(N)c2Cl)cc1 [Compound 23, 4-Amino-3-chloro-6-(4-chloro-2-fluoro-3-methoxyphenyl)-N-(4-methoxy-benzyloxy)picolinamide]
[1]
  pest or weed control at 70 g/ha: 100%
[2]
  pest or weed control at 70 g/ha: 100%
[3]
  pest or weed control at 70 g/ha: 100%
[4]
  plant injury at 70 g/ha: 15%

## COc1c(Cl)ccc(-c2cc(N)c(Cl)c(C(=O)N(C)O)n2)c1F [Compound 24, 4-Amino-3-chloro-6-(4-chloro-2-fluoro-3-methoxyphenyl)-N-hydroxy-N-methylpicolinamide]
[1]
  pest or weed control at 70 g/ha: 90%
[2]
  pest or weed control at 70 g/ha: 95%
[3]
  pest or weed control at 70 g/ha: 80%
[4]
  plant injury at 70 g/ha: 50%

## C=CCONC(=O)c1nc(-c2ccc(Cl)c(OC)c2F)nc(N)c1Cl [Compound 25, N-(2-Propenyloxy)-6-amino-5-chloro-2-(4-chloro-2-fluoro-3-methoxyphenyl)pyrimidine-4-carboxamide]
[1]; 8.75 g ai/ha
  pest or weed control at 8.75 g/ha: 90%
[2]; 8.75 g ai/ha
  pest or weed control at 8.75 g/ha: 100%
[3]; 8.75 g ai/ha
  pest or weed control at 8.75 g/ha: 100%
[4]; 8.75 g ai/ha
  plant injury at 8.75 g/ha: 60%

## C=CCON(C)C(=O)c1nc(-c2ccc(Cl)c(OC)c2F)cc(N)c1Cl [Compound 26, N-(2-Propenyloxy)-4-amino-3-chloro-6-(4-chloro-2-fluoro-3-methoxyphenyl)-N-methylpicolinamide]
[1]
  pest or weed control at 140 g/ha: 95%
[2]
  pest or weed control at 140 g/ha: 100%
[3]
  pest or weed control at 140 g/ha: 95%
[4]
  plant injury at 140 g/ha: 0%

## C=CCONC(=O)c1nc(Cl)cc(N)c1Cl [Compound 27, N-(2-Propenyloxy)-4-amino-3,6-dichloropicolinamide]
[1]
  pest or weed control at 280 g/ha: 35%
[2]
  pest or weed control at 280 g/ha: 100%
[3]
  pest or weed control at 280 g/ha: 100%
[4]
  plant injury at 280 g/ha: 0%

## C=C(Cl)CONC(=O)c1nc(-c2ccc(Cl)c(OC)c2F)cc(N)c1Cl [Compound 29, 4-Amino-3-chloro-6-(4-chloro-2-fluoro-3-methoxyphenyl)-N-(2-chloro-2-propenyl-oxy)picolinamide]
[1]
  pest or weed control at 35 g/ha: 100%
[2]
  pest or weed control at 35 g/ha: 100%
[3]
  pest or weed control at 35 g/ha: 100%
[4]
  plant injury at 35 g/ha: 50%

## COc1c(Cl)ccc(-c2cc(N)c(Cl)c(C(=O)NOCC3CC3)n2)c1F [Compound 32, 4-Amino-3-chloro-6-(4-chloro-2-fluoro-3-methoxyphenyl)-N-(cyclopropyl-methoxy)picolinamide]
[1]
  pest or weed control at 35 g/ha: 100%
[2]
  pest or weed control at 35 g/ha: 100%
[3]
  pest or weed control at 35 g/ha: 100%
[4]
  plant injury at 35 g/ha: 10%

## C=CC(C)ONC(=O)c1nc(-c2ccc(Cl)c(OC)c2F)cc(N)c1Cl (stereo not drawn) [Compound 33, 4-Amino-N-(but-3-en-2-yloxy)-3-chloro-6-(4-chloro-2-fluoro-3-methoxy-phenyl)picolinamide]
[1]
  pest or weed control at 70 g/ha: 100%
[2]
  pest or weed control at 70 g/ha: 100%
[3]
  pest or weed control at 70 g/ha: 100%
[4]
  plant injury at 70 g/ha: 10%

## Nc1cc(Cl)nc(C(=O)NOCc2ccc(F)cc2)c1Cl [Compound 34, 4-Amino-3,6-dichloro-N-(4-fluorobenzyloxy)picolinamide]
[1]
  pest or weed control at 280 g/ha: 65%
[2]
  pest or weed control at 280 g/ha: 100%
[3]
  pest or weed control at 280 g/ha: 100%
[4]
  plant injury at 280 g/ha: 20%

## C=CCONC(=O)c1nc(-c2ccc(Cl)c(OC)c2F)nc(N)c1OC [Compound 35, N-(2-Propenyloxy)-6-amino-2-(4-chloro-2-fluoro-3-methoxyphenyl)-5-methoxypyrimidine-4-carboxamide]
[1]
  pest or weed control at 140 g/ha: 100%
[2]
  pest or weed control at 140 g/ha: 100%
[3]
  pest or weed control at 140 g/ha: 90%
[4]
  plant injury at 140 g/ha: 20%

## C=C(F)CONC(=O)c1nc(-c2ccc(Cl)c(OC)c2F)cc(N)c1Cl [Compound 37, 4-Amino-3-chloro-6-(4-chloro-2-fluoro-3-methoxyphenyl)-N-(2-fluoro-2-propenyl-oxy)picolinamide]
[1]; 17.5 g ai/ha
  pest or weed control at 17.5 g/ha: 100%
[2]; 17.5 g ai/ha
  pest or weed control at 17.5 g/ha: 100%
[3]; 17.5 g ai/ha
  pest or weed control at 17.5 g/ha: 100%
[4]; 17.5 g ai/ha
  plant injury at 17.5 g/ha: 25%

## C=CCCONC(=O)c1nc(-c2ccc(Cl)c(OC)c2F)cc(N)c1Cl [Compound 38, 4-Amino-N-(3-butenyloxy)-3-chloro-6-(4-chloro-2-fluoro-3-methoxyphenyl)picolinamide]
[1]
  pest or weed control at 35 g/ha: 100%
[2]
  pest or weed control at 35 g/ha: 100%
[3]
  pest or weed control at 35 g/ha: 100%
[4]
  plant injury at 35 g/ha: 35%
